Assay results from article PMC12396409, “Screening and hit evaluation of a microbial metabolite library against the pathogenic Plasmodium falciparum and Toxoplasma gondii parasites” (International Journal for Parasitology: Drugs and Drug …, 2025).

What was measured:
[1] = system: P. falciparum 3D7 parasites; assay: P. falciparum growth inhibition assay, 2-cycle (120 h treatment), delayed-death screen and dose-response; type: cell-based, Plasmodium falciparum; settings: for Pf_120h_%Growth_Rep1: replicate 1; for Pf_120h_%Growth_Rep2: replicate 2
[2] = system: P. falciparum 3D7 parasites; assay: P. falciparum growth inhibition assay, 1-cycle (72 h treatment), SYBR DNA staining (library screen at 2 μg/mL and dose-response); type: cell-based, Plasmodium falciparum; settings: for Pf_72h_%Growth_Rep1: replicate 1; for Pf_72h_%Growth_Rep2: replicate 2
[3] = system: T. gondii RH strain (RH-Tub-eYFP) tachyzoites; assay: microbe, parasite or virus in culture; type: cell-based, Toxoplasma gondii; settings: 72 h; for Tg_72h_%Growth_Rep1: replicate 1; for Tg_72h_%Growth_Rep2: replicate 2
[4] = library screen at 2 μg/mL, 120 h, % growth
[5] = library screen at 2 μg/mL, 72 h, % growth
[6] = library screen at 2 μg/mL, % growth
[7] = P. falciparum, 120 h, screen at 2 μg/mL
[8] = P. falciparum, 72 h, screen at 2 μg/mL
[9] = P. falciparum, 120 h, parasite screen 2 μg/mL, % growth
[10] = P. falciparum, 72 h, parasite screen 2 μg/mL, % growth
[11] = T. gondii, parasite screen 2 μg/mL, % growth
[12] = P. falciparum 3D7, 120 h, library screen at 2 μg/mL, % growth
[13] = P. falciparum 3D7, 72 h, library screen at 2 μg/mL, % growth
[14] = T. gondii RH, library screen at 2 μg/mL, % growth

Molecule	Pf_120h_%Growth_Rep1 [1, 4]	Pf_120h_%Growth_Rep2 [1, 4]	Pf_72h_%Growth_Rep1 [2, 5]	Pf_72h_%Growth_Rep2 [2, 5]	Tg_72h_%Growth_Rep1 [3, 6]	Tg_72h_%Growth_Rep2 [3, 6]	Pf_120h_%Growth_Rep1 [1, 7]	Pf_120h_%Growth_Rep2 [1, 7]	Pf_72h_%Growth_Rep1 [2, 8]	Pf_72h_%Growth_Rep2 [2, 8]	Tg_72h_%Growth_Rep1 ([3]; T. gondii, screen at 2 μg/mL)	Tg_72h_%Growth_Rep2 ([3]; T. gondii, screen at 2 μg/mL)	further results
CCOC(=O)c1c(C)cc(O)cc1O [Ethyl orsellinate]	96.78%	106.42%	90.89%	117.50%	128.38%	103.54%	–	–	–	–	–	–	–
O=C1N[C@@H](Cc2ccccc2)C(=O)N2CCC[C@@H]12 [Cyclo(L-Phe-L-Pro)]	–	–	–	–	–	–	82.75%	99.85%	92.82%	90.35%	128.14%	102.31%	–
COC(=O)[C@@]12C(=O)C(C)C(=O)[C@]1(C)C(C)=C[C@H]1[C@]3(C=O)CC[C@H](OC(C)=O)C(C)(C)[C@H]3CC[C@@]12C (stereo partly drawn) [Andrastin A]	133.36%	82.36%	79.79%	84.23%	90.21%	88.06%	–	–	–	–	–	–	–
Pyripyropene A	–	–	–	–	–	–	–	–	–	–	–	–	Pf_120h_%Growth_Rep1 [1, 9]: 67.48%; Pf_120h_%Growth_Rep2 [1, 9]: 119.28%; Pf_72h_%Growth_Rep1 [2, 10]: 79.94%; Pf_72h_%Growth_Rep2 [2, 10]: 110.00%; Tg_72h_%Growth_Rep1 [3, 11]: 125.43%; Tg_72h_%Growth_Rep2 [3, 11]: 86.00%
CC(C)[C@@H]1NC(=O)[C@H](Cc2ccccc2)NC1=O [Cyclo(L-Phe-L-Val)]	–	–	–	–	–	–	67.70%	97.99%	85.66%	90.47%	132.95%	103.43%	–
Chaetomin	–	–	–	–	–	–	45.75%	45.66%	58.72%	55.68%	114.47%	90.87%	–
CC1(C)OC2CC(=O)OCC23C1CC(=O)C1(C)C3CCC2(C)C(c3ccoc3)OC(=O)C3OC321 (stereo not drawn) [BIA-L1755]	–	–	–	–	–	–	–	–	–	–	–	–	Pf_120h_%Growth_Rep1 [1, 12]: 93.20%; Pf_120h_%Growth_Rep2 [1, 12]: 110.15%; Pf_72h_%Growth_Rep1 [2, 13]: 83.85%; Pf_72h_%Growth_Rep2 [2, 13]: 113.59%; Tg_72h_%Growth_Rep1 [3, 14]: 135.94%; Tg_72h_%Growth_Rep2 [3, 14]: 85.64%
C=Cc1cc(OC)c2c(c1)c(=O)oc1c2cc(OC)c2c(O)ccc([C@H]3O[C@H](C)[C@@H](O)[C@@H](N(C)C)[C@@H]3O)c21 [Deacetylravidomycin]	–	–	–	–	–	–	1.87%	7.89%	3.21%	5.95%	3.62%	4.01%	–
CC[C@@H](C)/C=C(C)/C=C/C(=O)c1c(O)c(-c2ccc(O)cc2)cn(O)c1=O [Tenellin]	–	–	–	–	–	–	76.98%	107.08%	58.91%	96.26%	-2.05%	1.18%	–
CC[C@H]1OC(=O)[C@H](C)[C@@H](O[C@H]2C[C@@](C)(OC)[C@@H](O)[C@H](C)O2)[C@H](C)[C@@H](O[C@@H]2O[C@H](C)C[C@H](N(C)C)[C@H]2O)[C@@]2(C)C[C@@H](C)[C@@]3(O[C@@]1(C)[C@H](O)[C@H]3C)O2 [Anhydroerythromycin A]	87.25%	85.54%	84.47%	88.69%	129.02%	98.86%	–	–	–	–	–	–	–
